Species on record: Homo sapiens
Experiment: Compound was tested for its in vitro activity in the inhibition of platelet aggregation using human platelet rich plasma
Format: functional

Compared with CCCCOC(=O)N[C@@H](CNC(=O)C[C@@H]1C[C@H](c2ccc(C(=N)N)cc2)N(C)O1)C(=O)O, Cc1noc(C)c1S(=O)(=O)N[C@@H](CNC(=O)C[C@@H]1C[C@H](c2ccc(C(=N)N)cc2)N(C)O1)C(=O)O is 2-fold lower in IC50: 164 nM for the first, 84 nM for the second.

Compared with Cc1cccc(S(=O)(=O)N[C@@H](CNC(=O)C[C@@H]2C[C@H](c3ccc(C(=N)N)cc3)N(C)O2)C(=O)O)c1, Cc1cccc(S(=O)(=O)N[C@@H](CNC(=O)C[C@H]2C[C@H](c3ccc(C(=N)N)cc3)N(C)O2)C(=O)O)c1 is 54-fold higher in IC50: 28 nM for the first, 1500 nM for the second.

Going from Cc1ccccc1S(=O)(=O)N[C@@H](CNC(=O)C[C@@H]1C[C@H](c2ccc(C(=N)N)cc2)N(C)O1)C(=O)O to Cc1cccc(S(=O)(=O)N[C@@H](CNC(=O)C[C@@H]2C[C@H](c3ccc(C(=N)N)cc3)N(C(C)C)O2)C(=O)O)c1, the IC50 rises from 58 nM to 140 nM (2.4-fold).

Going from Cc1cccc(S(=O)(=O)N[C@@H](CNC(=O)C[C@@H]2C[C@H](c3ccc(C(=N)N)cc3)N(c3ccccc3)O2)C(=O)O)c1 to Cc1cccc(S(=O)(=O)N[C@@H](CNC(=O)C[C@@H]2C[C@H](c3ccc(C(=N)N)cc3)N(Cc3ccccc3)O2)C(=O)O)c1, the IC50 falls from 530 nM to 190 nM (2.8-fold).

From ChEMBL document CHEMBL1131698, “Platelet glycoprotein IIb/IIIa receptor antagonists derived from isoxazolidines” (Bioorg Med Chem Lett, 1999)
